Results published in US7081481B2, “Excitatory amino acid receptor modulators” (Eli Lilly and Company, priority 2000, dated 2006).

Target: T1, mGluR^2 (Homo sapiens, UniProt Q14416)
T1 construct: expressed in transfected cells
Test: [3H] LY341495 binding displacement at mGluR2
Settings: cells expressing human mGluR subtypes, radioligand [3H] LY341495, read-out: Ki, reversal of [3H] LY341495 binding
From the text: (D. D. Schoepp, et al., Neuropharmacol., 1996, 35, 1661–1672 and 1997, 36, 1–11).
(LY341495 is described in Ornstein et al., J. Med. Chem., 1998, 41, 346–357 and J. Med. Chem., 1998, 41, 358 to 378).

T1 sequence (Q14416 19-872): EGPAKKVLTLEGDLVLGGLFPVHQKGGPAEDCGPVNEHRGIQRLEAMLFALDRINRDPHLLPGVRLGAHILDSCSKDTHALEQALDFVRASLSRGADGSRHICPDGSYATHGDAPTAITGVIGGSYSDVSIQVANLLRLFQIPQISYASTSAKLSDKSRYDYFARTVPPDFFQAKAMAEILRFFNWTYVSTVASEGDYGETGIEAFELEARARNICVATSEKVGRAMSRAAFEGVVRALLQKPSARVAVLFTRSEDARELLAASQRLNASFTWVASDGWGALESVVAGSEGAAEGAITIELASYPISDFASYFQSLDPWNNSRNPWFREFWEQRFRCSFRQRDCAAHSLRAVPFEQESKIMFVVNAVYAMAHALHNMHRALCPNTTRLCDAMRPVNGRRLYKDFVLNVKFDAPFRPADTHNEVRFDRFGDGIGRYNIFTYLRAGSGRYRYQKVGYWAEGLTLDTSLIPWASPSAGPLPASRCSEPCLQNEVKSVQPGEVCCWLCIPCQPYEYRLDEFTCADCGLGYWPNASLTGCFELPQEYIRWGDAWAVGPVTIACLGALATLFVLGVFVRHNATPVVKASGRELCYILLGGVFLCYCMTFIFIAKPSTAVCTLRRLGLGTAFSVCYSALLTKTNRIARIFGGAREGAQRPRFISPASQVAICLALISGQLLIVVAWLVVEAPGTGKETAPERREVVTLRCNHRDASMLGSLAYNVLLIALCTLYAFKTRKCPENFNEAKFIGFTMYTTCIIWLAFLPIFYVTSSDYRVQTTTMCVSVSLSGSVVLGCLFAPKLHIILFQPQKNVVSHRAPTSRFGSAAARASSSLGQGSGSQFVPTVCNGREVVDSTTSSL

Ki: 285 nM
Compound: N[C@@H](C(=O)O)[C@@H]1[C@H](COC(=O)Nc2ccccc2)[C@H]1C(=O)O (racemic) [Example 1, (2SR,1′SR,2′RS,3′RS)-2-(3′-phenylcarbamoyloxymethyl-2′-carboxycyclopropyl)glycine]
